Laboratory results as given in patent publication EP1200395B1, “UREA DERIVATIVES AS INHIBITORS OF CCR-3 RECEPTOR” (KIRIN BEER KABUSHIKI KAISHA, priority 1999, dated 2001).

target: T1, CCR-3 (Homo sapiens, UniProt P51677); assay: Eotaxin-induced chemotaxis of CCR-3 transfectant cells (CCR3/U937); assay type: cell-based; design: expressed in transfected cells; host or cells: U937; details: 10 µM test compound; eotaxin 1 x 10^-9 M; CCR3/U937 cells (Table 3a)
T1 sequence (P51677 1-355): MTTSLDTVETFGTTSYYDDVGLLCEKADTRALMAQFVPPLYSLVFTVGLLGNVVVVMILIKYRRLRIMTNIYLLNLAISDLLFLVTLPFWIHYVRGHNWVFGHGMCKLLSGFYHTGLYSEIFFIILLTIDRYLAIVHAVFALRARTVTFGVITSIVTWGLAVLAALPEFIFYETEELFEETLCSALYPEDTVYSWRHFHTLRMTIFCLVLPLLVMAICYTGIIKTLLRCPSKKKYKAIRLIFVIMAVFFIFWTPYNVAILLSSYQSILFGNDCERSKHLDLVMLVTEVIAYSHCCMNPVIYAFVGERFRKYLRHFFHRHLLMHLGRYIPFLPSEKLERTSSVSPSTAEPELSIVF
Method: The inhibitory activity of the compounds against eotaxin-induced chemotaxis was determined by measuring the inhibition of migration of CCR-3 transfectant cells (CCR3/U937), using a minor modification of the method described by Ohashi, H. et al., Int Arch Allergy Immunol. […] The chemotaxis assay was performed in a 24-well culture plate. Human eotaxin suspended in assay medium was added to the wells at 1 x 10^-9 M along with test compounds at various concentrations. For a positive control, eotaxin was added to the wells without a test compound, and for a negative control, neither eotaxin nor a test compound was added to the wells. Chemotaxicell (Kurabo Co., Ltd.) having 5 micrometers pore size were inserted into each well and 100 micro liters of CCR-3 transfectant cells suspension were added to the top chamber. The plates were incubated at 37 °C for 1 hour. After incubation, migrated cells in lower wells were diluted and counted by particle size distribution analyzer (CDP-500, Sysmex Co., Ltd.).

Compound | Chemotaxis Assay 10 µM (inhibition %) [%]
COC(=O)CCCN(CCCNC(=O)Nc1ccccc1Br)C1CCCc2ccccc21 (stereo not drawn) [Compound 189] | 94
O=C(O)CCCN(CCCNC(=O)Nc1ccccc1Br)C1CCCc2ccccc21 (stereo not drawn) [Compound 190] | 90
CCN(CCCNC(=O)Nc1ccccc1Br)C1CCCc2ccccc21 (stereo not drawn) [Compound 191] | 100
CCN(CCCNC(=O)Nc1ccccc1)C1CCCc2ccccc21 (stereo not drawn) [Compound 192] | 100
COC(=O)CCCN(CCCNC(=O)Nc1ccccc1Br)C(C)(C)c1ccccc1 [Compound 194] | 100
CC(C)(c1ccccc1)N(CCCNC(=O)Nc1ccccc1Br)CCCC(=O)O [Compound 195] | 100
COC(=O)CCCN(CCCNC(=O)Nc1ccc(Br)cc1C)C1CCCc2ccccc21 (stereo not drawn) [Compound 200] | 100
Cc1cc(Br)ccc1NC(=O)NCCCN(CCCC(=O)O)C1CCCc2ccccc21 (stereo not drawn) [Compound 201] | 100
COC(=O)CCCN(CCCNC(=O)Nc1ccc(Br)cc1)C(C)(C)Cc1ccccc1 [Compound 206] | 64
CC(C)(Cc1ccccc1)N(CCCNC(=O)Nc1ccc(Br)cc1)CCCC(=O)O [Compound 207] | 50
O=C(NCCCN(CCCO)CCc1ccc(Cl)cc1)Nc1ccccc1 [Compound 219] | 86
NC(=O)CN(CCCNC(=O)Nc1ccccc1)CCc1ccc(Cl)cc1 [Compound 220] | 77
C=CCN(CCCNC(=O)Nc1ccccc1)CCc1ccc(Cl)cc1 [Compound 221] | 100
O=C(NCCCN(Cc1ccc(C(=O)O)cc1)C1CCCc2ccccc21)Nc1ccc(Br)cc1 (stereo not drawn) [Compound 223] | 86
CCOC(=O)C1CC1CN(CCCNC(=O)Nc1ccc(Br)cc1)C1CCCc2ccccc21 (stereo not drawn) [Compound 224] | 75
COC(=O)CCCN(CCCNC(=O)Nc1ccc(C(=O)O)cc1)C1CCCc2ccccc21 (stereo not drawn) [Compound 225, Methyl 4-[[3-[4-(carboxy)phenylureido]propyl](1,2,3,4-tetrahydro-1-naphthyl)amino]butylate] | 100
Cc1ccc(C(C)N(CCCNC(=O)Nc2ccc(Br)cc2)CCCC(=O)O)cc1 (stereo not drawn) [Compound 226] | 100
CCN(CCCNC(=O)Nc1ccccc1)CCc1ccc(F)cc1 [Compound 230] | 100
CCN(CCCNC(=O)Nc1ccccc1)CCc1ccc(C)cc1 [Compound 231] | 90
CCN(CCCNC(=O)Nc1ccccc1)CCc1ccccc1Cl [Compound 232] | 100
CCN(CCCNC(=O)Nc1ccccc1)CCc1cccc(Cl)c1 [Compound 233] | 100
CCN(CCCNC(=O)Nc1ccccc1)C1CCc2ccccc21 (stereo not drawn) [Compound 234] | 89
CCOC(=O)c1cccc(NC(=O)NCCCN(CCCC(=O)O)C2CCCc3ccccc32)c1 (stereo not drawn) [Compound 236] | 97
CC(C)CN(CCCNC(=O)Nc1ccccc1)CCc1ccc(Cl)cc1 [Compound 239] | 100
O=C(NCCCN(CCc1ccc(Cl)cc1)CC1CCCCC1)Nc1ccccc1 [Compound 240] | 86
COC(=O)CCCCN(CCCNC(=O)Nc1ccccc1)CCc1ccc(Cl)cc1 [Compound 241] | 100
CCOC(=O)CCCCCN(CCCNC(=O)Nc1ccccc1)CCc1ccc(Cl)cc1 [Compound 242] | 73
NC(=O)CCN(CCCNC(=O)Nc1ccccc1)CCc1ccc(Cl)cc1 [Compound 243] | 84
CC(=O)OCCN(CCCNC(=O)Nc1ccccc1)CCc1ccc(Cl)cc1 [Compound 244] | 81
COC(=O)CN(CCCNC(=O)Nc1ccccc1)CCc1ccc(Cl)cc1 [Compound 245] | 100

The next lines start with the values.

Chemotaxis Assay 10 µM (inhibition %) [%] | Compound
100 | CCOC(=O)CCCN(CCCNC(=O)Nc1ccc(Br)cc1)C1CCCc2ccccc21 (stereo not drawn) [Compound 184, Ethyl 4-[[3-(4-bromophenylureido)propyl](1,2,3,4-tetrahydro-1-naphthyl)amino]burylate]
100 | COC(=O)CCCN(CCCNC(=O)Nc1ccc(Cl)cc1)C1CCCc2ccccc21 (stereo not drawn) [Compound 185]
69 | O=C(O)CN(CCCNC(=O)Nc1ccc(Br)cc1)C1CCCc2ccccc21 (stereo not drawn) [Compound 186]
100 | COC(=O)CCCN(CCCNC(=O)Nc1ccc(F)cc1)C1CCCc2ccccc21 (stereo not drawn) [Compound 187]
100 | O=C(O)CCCN(CCCNC(=O)Nc1ccc(F)cc1)C1CCCc2ccccc21 (stereo not drawn) [Compound 188]
100 | COC(=O)CCCN(CCCNC(=O)Nc1cccc(Br)c1)C1CCCc2ccccc21 (stereo not drawn) [Compound 198]
100 | O=C(O)CCCN(CCCNC(=O)Nc1cccc(Br)c1)C1CCCc2ccccc21 (stereo not drawn) [Compound 199]
100 | CC(=O)OCCCCN(CCCNC(=O)Nc1ccc(Br)cc1)C1CCCc2ccccc21 (stereo not drawn) [Compound 202]
97 | O=C(NCCCN(CCCCCO)C1CCCc2ccccc21)Nc1ccc(Br)cc1 (stereo not drawn) [Compound 205]
100 | CS(=O)(=O)NC(=O)CCCN(CCCNC(=O)Nc1ccc(Br)cc1)C1CCCc2ccccc21 (stereo not drawn) [Compound 210]
92 | COC(=O)CCCCN(CCCNC(=O)Nc1ccc(Br)cc1)C1CCCc2ccccc21 (stereo not drawn) [Compound 213]
99 | O=C(O)CCCCN(CCCNC(=O)Nc1ccc(Br)cc1)C1CCCc2ccccc21 (stereo not drawn) [Compound 214]
89 | CC(=O)OCCCN(CCCNC(=O)Nc1ccc(Br)cc1)C1CCCc2ccccc21 (stereo not drawn) [Compound 215]
100 | O=C(NCCCN(CCCO)C1CCCc2ccccc21)Nc1ccc(Br)cc1 (stereo not drawn) [Compound 216]
91 | O=C(O)CCCN(CCCNC(=O)Nc1ccc(C(=O)O)cc1)C1CCCc2ccccc21 (stereo not drawn) [Compound 235]

same assay, conditions: U-937; 10 µM test compound; eotaxin 1 x 10^-9 M; CCR3/U937 cells (Table 3a)

Compound | inhibition at 10 µM [%]
O=C(CCCN(CCCNC(=O)Nc1ccc(Br)cc1)C1CCCc2ccccc21)NS(=O)(=O)c1ccccc1 (stereo not drawn) [Compound 196, 3-[[3-(4-Bromophenylureido)propyl](1,2,3,4-tetrahydro-1-naphthyl)amino]-1-[(phenylsulfonyl)carbamoyl]propane] | 100
O=C(NCCCN(CCCc1nnnn1C(c1ccccc1)(c1ccccc1)c1ccccc1)C1CCCc2ccccc21)Nc1ccc(Br)cc1 (stereo not drawn) [Compound 217, 3-[[3-(4-bromophenylureido)propyl](1,2,3,4-tetrahydro-1-naphthyl)amino]-1-[1-(triphenylmethyl)tetrazol-5-yl]propane] | 87
COc1ccc([C@@H](C)N(CCCNC(=O)Nc2ccc(Br)cc2)CCCC(=O)O)cc1 [Compound 227, 4-[[3-(4-Bromophenylureido)propyl][(1R)-1-(4-methoxyphenyl)ethyl]amino]butanoic acid] | 100
CCOC(=O)c1ccc(NC(=O)NCCCN(CCCC(=O)O)C2CCCc3ccccc32)cc1 (stereo not drawn) [Compound 228, 4-[[3-[4-(Ethoxycarbonyl)phenylureido]propyl](1,2,3,4-tetrahydro-1-naphthyl)amino]butanoic acid] | 100
O=C(NCCCN(CCc1ccc(Cl)cc1)CCc1ccc(Cl)cc1)Nc1ccccc1 [Compound 238, [3-(Phenylureido)propyl]bis[2-(4-chlorophenyl)ethyl]amine] | 69

The remaining lines, values ahead:

inhibition at 10 µM [%] | Compound
100 | NC(=O)CCCN(CCCNC(=O)Nc1ccc(Br)cc1)C1CCCc2ccccc21 (stereo not drawn) [Compound 193, 4-[[3-(4-Bromophenylureido)propyl](1,2,3,4-tetrahydro-1-naphthyl)amino]butanamide]
100 | O=C(NCCCN(CCCCO)C1CCCc2ccccc21)Nc1ccc(Br)cc1 (stereo not drawn) [Compound 203, 4-[[3-(4-Bromophenylureido)propyl](1,2,3,4-tetrahydro-1-naphthyl)amino]-1-butanol]
99 | O=C(NCCCN(CCCc1nnn[nH]1)C1CCCc2ccccc21)Nc1ccc(Br)cc1 (stereo not drawn) [Compound 218, 3-[[3-(4-Bromophenylureido)propyl](1,2,3,4-tetrahydro-1-naphthyl)amino]-1-(1H-tetrazol-5-yl)propane]
100 | O=C(O)CCCN(CCCNC(=O)Nc1ccc(I)cc1)C1CCCc2ccccc21 (stereo not drawn) [Compound 229, 4-[[3-(4-Iodophenylureido)propyl](1,2,3,4-tetrahydro-1-naphthyl)amino]butanoic acid]
